Experimental data as given in publication PMC12738692, “Identification, characterization, and structure-activity relationship of the ASIC3-selective peptide WRPRFa” (Communications Chemistry, 2025).
Residue numbers refer to the chain shown, from its start. Where no end group is shown, it is not given here.

Key:
Type in all cases: cell-based
ASIC3 E416Q = target: T1, ASIC3 E416Q (Homo sapiens, UniProt Q9UHC3, E416Q); experiment: MPC peptide activity on ASIC3 E416Q mutant (incl. double mutant cycle); conditions: read-out: EC50 (95% CI)
T1 construct: human ASIC3 (NM_004769.4); P2A-mCherry reporter (C, cleaved yes); expressed in transfected cells; host or cells: CHO cells (85050302, Sigma), transient transfection
T1 sequence (Q9UHC3 1-531 E416Q): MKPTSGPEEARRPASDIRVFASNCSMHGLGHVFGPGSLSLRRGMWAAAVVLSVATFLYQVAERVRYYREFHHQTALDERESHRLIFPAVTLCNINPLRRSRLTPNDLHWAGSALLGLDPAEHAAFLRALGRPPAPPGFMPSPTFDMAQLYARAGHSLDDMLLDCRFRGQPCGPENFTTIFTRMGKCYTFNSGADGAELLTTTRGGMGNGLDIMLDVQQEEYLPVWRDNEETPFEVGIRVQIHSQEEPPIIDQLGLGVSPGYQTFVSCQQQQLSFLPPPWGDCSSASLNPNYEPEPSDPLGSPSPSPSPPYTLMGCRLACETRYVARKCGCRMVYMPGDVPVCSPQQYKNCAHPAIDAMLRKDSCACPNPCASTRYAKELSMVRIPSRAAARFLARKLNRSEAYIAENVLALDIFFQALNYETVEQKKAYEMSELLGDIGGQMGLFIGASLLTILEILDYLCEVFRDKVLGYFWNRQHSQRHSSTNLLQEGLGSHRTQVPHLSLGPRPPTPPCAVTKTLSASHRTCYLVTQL
Procedure: We individually mutated the four glutamates to glutamine to remove their charge but maintain the side chain structure (Fig. 4C). We tested each mutant by incubating HEK cells stably expressing ASIC3 or CHO cells transfected with mutant ASIC3 with 30 µM WRPRFa before a pH 6.3 acid stimulus.
All mutagenesis was performed at Genscript, and sequences were verified by nanopore sequencing by Plasmidsaurus (Eugene, OR). The numbering of ASIC3 amino acids is based on RefSeq NP_004760.1. Plasmids were transfected into CHO cells using Lipofectamine 3000 (Thermo) according to the manufacturer’s protocol. Cells were used for patch-clamp recordings 24–48 h after transfection.
CHO and HEK cells were tested in the whole-cell configuration on MPC platforms using an Axopatch 200B amplifier (Axon Instruments, San Jose, CA) and a Digidata 1322A or Digidata 1440A digitizer (Axon) using pClamp 9.2 or 10.7 (Molecular Devices, San Jose, CA), respectively. When testing transfected cells, red fluorescence from the cleaved mCherry reporter was used to identify cells expressing ASIC3, ASIC131, or ASIC313. For cells expressing transfected ASIC1a or ASIC2a, the green signal from the cleaved eGFP reporter was used. All electrophysiology data were analyzed with Clampfit 11.1 (Molecular Devices).

ASIC131 = target: T2, ASIC131 (Homo sapiens, UniProt Q9UHC3); experiment: MPC WRPRFa concentration-response on concatemer ASIC131; conditions: read-out: lower limit EC50
T2 construct: placing human ASIC1a and human ASIC3 ORFs in tandem; expressed in transfected cells; host or cells: WT CHO cells (85050302, Sigma), transient transfection
T2 sequence (Q9UHC3 1-531): T1 sequence (Q9UHC3 1-531 E416Q) with Q416E
Description: (§1) For peptide concentration-response curves, Bottom was set to 0 and Top was constrained to ≤ 1 for peptides that approached plateau phase or where I3s/Ipk reached 1. […] For activation- or desensitization-pH curves, Bottom was set to 0 and Top constrained to 1.

ASIC3 E78Q = target: T3, ASIC3 E78Q (Homo sapiens, UniProt Q9UHC3, E78Q); experiment: MPC peptide activity on ASIC3 E78Q mutant (I3s/Ipk, peak current, double mutant cycle); conditions: read-out: EC50 (95% CI)
T3 construct: human ASIC3 (NM_004769.4); P2A-mCherry reporter (C, cleaved yes); expressed in transfected cells; host or cells: CHO cells (85050302, Sigma), transient transfection
T3 sequence (Q9UHC3 1-531 E78Q): T1 sequence (Q9UHC3 1-531 E416Q) with E78Q, Q416E
Description: We then asked which of the two WRPRFa arginines interacts with the E78/E421 pair. […] To this end, we used a double mutant cycle approach to identify coupling between site 2 or site 4 of WRPRFa with the E78/E421 pair. In this case, the double mutant cycle experiment compared the change in potency caused by single mutations in either WRPRFa or ASIC3 against the change in potency caused by simultaneous mutations in WRPRFa and ASIC3. A coupling coefficient (Ω) can be calculated by dividing the product of the WT/WRPRFa potency and double mutant potency by the product of the two single mutant potencies.
as §1

human ASIC3 = target: T4, human ASIC3 (Homo sapiens, UniProt Q9UHC3); conditions: from pH-dependence of activation
T4 construct: CHO cells stably expressing human ASIC3 (NM_004769.1)
T4 sequence (Q9UHC3 1-531): T1 sequence (Q9UHC3 1-531 E416Q) with Q416E

ASIC3 E421Q = target: T5, ASIC3 E421Q (Homo sapiens, UniProt Q9UHC3, E421Q); experiment: MPC peptide activity on ASIC3 E421Q mutant; conditions: Emax constrained, read-out: EC50 (95% CI)
T5 construct: human ASIC3 (NM_004769.4); P2A-mCherry reporter (C, cleaved yes); expressed in transfected cells; host or cells: CHO cells (85050302, Sigma), transient transfection
T5 sequence (Q9UHC3 1-531 E421Q): T1 sequence (Q9UHC3 1-531 E416Q) with Q416E, E421Q
Description: as §1

WRPRF-NH2 [WRPRFa]
EC50 (ASIC3 E416Q): 2470 nM | EC50 (ASIC131): ≥ 32400 nM | EC50 (ASIC3 E78Q): 206 nM | peptide-bound channels activated by pH 6.3 (human ASIC3): 99.7% | EC50 (ASIC3 E421Q): ≥ 22500 nM
